Measured values reported in US6593480B2 (Abbott Laboratories, priority 1999, dated 2003).

target: T1, Human glucocorticoid receptors (Homo sapiens, UniProt P04150); test: Radioligand filter binding assay, displacement of 3(H)-dexamethasone from human glucocorticoid receptor cytosol; settings: 1.7 μM test compound; inhibition of 3(H)-dex binding to hGR
T1 construct: made in house; host or cells: Sf9 insect cells, recombinant baculovirus (BAC-TO-BAC)
T1 sequence (P04150 1-777): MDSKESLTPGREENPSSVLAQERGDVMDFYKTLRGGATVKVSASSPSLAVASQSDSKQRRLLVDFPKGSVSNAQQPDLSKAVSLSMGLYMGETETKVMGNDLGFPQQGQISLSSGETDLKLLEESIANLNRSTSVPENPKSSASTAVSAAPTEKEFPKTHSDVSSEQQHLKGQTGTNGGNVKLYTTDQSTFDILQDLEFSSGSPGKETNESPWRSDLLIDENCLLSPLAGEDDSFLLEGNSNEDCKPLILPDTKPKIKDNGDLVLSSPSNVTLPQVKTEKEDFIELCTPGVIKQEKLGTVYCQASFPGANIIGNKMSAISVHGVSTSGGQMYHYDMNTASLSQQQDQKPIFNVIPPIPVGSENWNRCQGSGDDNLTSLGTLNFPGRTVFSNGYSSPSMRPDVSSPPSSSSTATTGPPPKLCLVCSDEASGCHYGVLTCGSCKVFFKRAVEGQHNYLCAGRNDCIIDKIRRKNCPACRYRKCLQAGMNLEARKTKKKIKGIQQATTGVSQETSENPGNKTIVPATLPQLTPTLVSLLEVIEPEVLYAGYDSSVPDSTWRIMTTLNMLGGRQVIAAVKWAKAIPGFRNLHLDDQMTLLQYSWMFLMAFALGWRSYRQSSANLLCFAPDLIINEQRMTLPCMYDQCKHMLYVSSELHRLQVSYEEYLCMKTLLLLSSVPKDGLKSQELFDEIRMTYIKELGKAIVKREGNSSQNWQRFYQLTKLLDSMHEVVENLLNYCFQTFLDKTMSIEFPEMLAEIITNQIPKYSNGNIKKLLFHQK

`COc1cccc2c1-c1ccc(NS(=O)(=O)C(C)C)cc1C(c1ccccc1)O2` (stereo not shown) [Example 8, (1-methoxy-6-phenyl-6H-dibenzo(b,d)pyran-8-yl)isopropanesulfonamide] was tested. Which “GR BINDING (% Inhibition @ 1.7 μM)” value did it give?
The value was 87.9%.

For `COc1cccc2c1-c1ccc(NS(C)(=O)=O)cc1C(c1cccc(O)c1)O2` (stereo not shown) [Example 34, (1-methoxy-6-(3-hydroxy)phenyl-6H-dibenzo(b,d)pyran-8-yl)-methanesulfonamide], which “GR BINDING (% Inhibition @ 1.7 μM)” value is on record?
The value was 81.6%.

For `COc1cccc2c1-c1ccc(NS(C)(=O)=O)cc1[C@@H](c1ccccc1)O2` [Example 23, 6R-(1-methoxy-6-phenyl-6H-dibenzo(b,d)pyran-8-yl)methanesulfonamide], which “GR BINDING (% Inhibition @ 1.7 μM)” value is on record?
The value was 36.9%.

How did the “GR BINDING (% Inhibition @ 1.7 μM)” value turn out when `CCC(=O)Nc1ccc2c(c1)C(c1ccccc1)Oc1cccc(OC)c1-2` (stereo not shown) [Example 13, (1-methoxy-6-phenyl-6H-dibenzo(b,d)pyran-8-yl)propionamide] was run?
The value was 85.4%.

Which “GR BINDING (% Inhibition @ 1.7 μM)” value does the source give for `COc1cccc2c1-c1ccc(CS(N)(=O)=O)cc1C(C1CCCCC1=O)O2` (stereo not shown) [Example 72, (1-methoxy-6-(2-(1-oxocyclohexyl))-6H-dibenzo(b,d)pyran-8-yl)methanesulfonamide] here?
Its value is 58.8%.

`COc1cccc2c1-c1ccc(NC(=O)C(C)C)cc1C(c1ccccc1)O2` (stereo not shown) [Example 14] was tested. Which “GR BINDING (% Inhibition @ 1.7 μM)” value did it give?
The value was 85.1%.

same assay, conditions: 1.7 μM test compound; inhibition of 3(H)-dex binding to hGR; read-out: GR BINDING (% Inhibition @ 1.7 μM)

How did the inhibition at 1.7 µM turn out when `COc1cccc2c1-c1ccc(NCC3CC3)cc1C(c1ccccc1)O2` (stereo not shown) [Example 20, (1-methoxy-6-phenyl-6H-dibenzo(b,d)pyran-8-yl)cyclopropylmethylamine] was run?
The inhibition at 1.7 µM was 54.4%.

For `COc1cccc2c1-c1ccc(CCN)cc1C(c1ccccc1)O2` (stereo not shown) [Example 19, (1-methoxy-6-phenyl-6H-dibenzo(b,d)pyran-8-yl)ethylamine], which inhibition at 1.7 µM is on record?
The inhibition at 1.7 µM was 66%.

For `COc1ccc(S(=O)(=O)N(C)c2cccc(C3Oc4cccc(OC)c4-c4ccc(NS(C)(=O)=O)cc43)c2)cc1` (stereo not shown) [Example 148, 4-methoxy-N-(3-{1-methoxy-8-[(methylsulfonyl)amino]-6H-benzo[c]chromen-6-yl}phenyl)-N-methylbenzenesulfonamide], which inhibition at 1.7 µM is on record?
Its inhibition at 1.7 µM is 82.7%.

For `CC(=O)c1cccc2c1-c1ccc(NS(C)(=O)=O)cc1C(c1ccccc1)O2` (stereo not shown) [Example 38], which inhibition at 1.7 µM is on record?
The inhibition at 1.7 µM was 58.9%.

How did the inhibition at 1.7 µM turn out when `COc1cccc2c1-c1ccc(NS(=O)(=O)/C=C/c3ccccc3)cc1C(c1ccccc1)O2` (stereo not shown) [Example 11, (1-methoxy-6-phenyl-6H-dibenzo(b,d)pyran-8-yl)-(2-phenyl-E-ethenyl) sulfonamide] was run?
Its inhibition at 1.7 µM is 57.8%.

How did the inhibition at 1.7 µM turn out when `CS(=O)(=O)Nc1ccc2c(c1)C(c1ccccc1)Oc1cccc(CO)c1-2` (stereo not shown) [Example 104, N-[1-(hydroxymethyl)-6-phenyl-6H-benzo[c]chromen-8-yl]methanesulfonamide] was run?
Its inhibition at 1.7 µM is 86.8%.

How did the inhibition at 1.7 µM turn out when `C=CCc1cccc2c1-c1ccc(NS(C)(=O)=O)cc1C(c1ccccc1)O2` (racemic) [Example 41] was run?
Its inhibition at 1.7 µM is 88.7%.

`COc1cccc2c1-c1ccc(NS(C)(=O)=O)cc1C(c1cccc(N(C)S(=O)(=O)c3ccc(-c4ccon4)s3)c1)O2` (stereo not shown) [Example 149, 5-(3-isoxazolyl)-N-(3-{1-methoxy-8-[(methylsulfonyl)amino]-6H-benzo[c]chromen-6-yl}phenyl)-N-methyl-2-thiophenesulfonamide] was tested. Which inhibition at 1.7 µM did it give?
The inhibition at 1.7 µM was 69%.

`CCCN(C)c1ccc(C2Oc3cccc(OC(F)F)c3-c3ccc(N)c(Br)c32)cc1` (stereo not shown) [Example 29, (1-difluoromethoxy-6-(4-(N-propyl-N-methylamino)phenyl)-7-bromo-6H-dibenzo(b,d)pyran-8-yl)-amine] was tested. Which inhibition at 1.7 µM did it give?
Its inhibition at 1.7 µM is 55%.

With `COc1cccc2c1-c1ccc(NS(C)(=O)=O)cc1C(c1cccc(-c3ccc(C(=O)O)cc3)c1)O2` (stereo not shown) [Example 122, 3′-{1-methoxy-8-[(methylsulfonyl)amino]-6H-benzo[c]chromen-6-yl}[1,1′-biphenyl]-4-carboxylic acid] as the compound, how does the inhibition at 1.7 µM read?
The inhibition at 1.7 µM was 63.8%.

Which inhibition at 1.7 µM does the source give for `COc1cccc2c1-c1ccc(NS(C)(=O)=O)cc1C(c1cccc(CCCC(=O)O)c1)O2` (stereo not shown) [Example 151, 4-(3-{1-methoxy-8-[(methylsulfonyl)amino]-6H-benzo[c]chromen-6-yl}phenyl)butanoic acid] here?
Its inhibition at 1.7 µM is 69.5%.

With `COc1cccc2c1-c1ccc(NS(C)(=O)=O)cc1C(c1cccc(CCCC#N)c1)O2` (stereo not shown) [Example 112, N-{6-[3-(3-cyanopropyl)phenyl]-1-methoxy-6H-benzo[c]chromen-8-yl}methanesulfonamide] as the compound, how does the inhibition at 1.7 µM read?
Its inhibition at 1.7 µM is 91.7%.

`C=CCOc1ccc2c(c1OC)-c1ccc(NS(C)(=O)=O)cc1C(c1ccccc1)O2` (stereo not shown) [Example 105, N-[2-(allyloxy)-1-methoxy-6-phenyl-6H-benzo[c]chromen-8-yl]methanesulfonamide] was tested. Which inhibition at 1.7 µM did it give?
Its inhibition at 1.7 µM is 83.5%.

`COc1cccc2c1-c1ccc(NS(C)(=O)=O)cc1C(C#N)O2` (stereo not shown) [Example 90, N-(6-cyano-1-methoxy-6H-benzo[c]chromen-8-yl)methanesulfonamide] was tested. Which inhibition at 1.7 µM did it give?
The inhibition at 1.7 µM was 55.1%.

`COc1cccc2c1-c1ccc(NS(C)(=O)=O)cc1C(Cc1cccc(C#N)c1)O2` (stereo not shown) [Example 49] was tested. Which inhibition at 1.7 µM did it give?
Its inhibition at 1.7 µM is 75.1%.

How did the inhibition at 1.7 µM turn out when `COc1cccc2c1-c1ccc(NC(=O)C(F)(F)F)cc1C(c1ccccc1)O2` (stereo not shown) [Example 22, (1-methoxy-6-phenyl-6H-dibenzo(b,d)pyran-8-yl)trifluoroacetamide] was run?
Its inhibition at 1.7 µM is 87.9%.

For `COCCOCOc1ccc2c(c1OC)-c1ccc(NS(C)(=O)=O)cc1C(c1ccccc1)O2` (stereo not shown) [Example 106, N-{1-methoxy-2-[(2-methoxyethoxy)methoxy]-6-phenyl-6H-benzo[c]chromen-8-yl}methanesulfonamide], which inhibition at 1.7 µM is on record?
Its inhibition at 1.7 µM is 42.7%.

For `CCOC(=O)CCCc1cccc(C2Oc3cccc(OC(F)F)c3-c3ccc(NS(C)(=O)=O)cc32)c1` (stereo not shown) [Example 115, ethyl 4-(3-{1-(difluoromethoxy)-8-[(methylsulfonyl)amino]-6H-benzo[c]chromen-6-yl}phenyl)butanoate], which inhibition at 1.7 µM is on record?
Its inhibition at 1.7 µM is 83.5%.

Which inhibition at 1.7 µM does the source give for `COc1cccc2c1-c1ccc(NS(C)(=O)=O)cc1C(c1cccc(CCCC(=O)N3CCCCC3)c1)O2` (stereo not shown) [Example 142, N-(1-methoxy-6-{3-[4-oxo-4-(1-piperidinyl)butyl]phenyl}-6H-benzo[c]chromen-8-yl)methanesulfonamide] here?
Its inhibition at 1.7 µM is 78.2%.

For `C=CCOc1cccc2c1-c1ccc(NS(C)(=O)=O)cc1C(c1ccccc1)O2` (stereo not shown) [Example 78, N-[1-(allyloxy)-6-phenyl-6H-benzo[c]chromen-8-yl]methanesulfonamide], which inhibition at 1.7 µM is on record?
The inhibition at 1.7 µM was 77.9%.

How did the inhibition at 1.7 µM turn out when `C=Cc1cccc2c1-c1ccc(NS(C)(=O)=O)cc1C(c1ccccc1)O2` (racemic) [Example 37] was run?
Its inhibition at 1.7 µM is 94.8%.

`CS(=O)(=O)Nc1ccc2c(c1)C(c1cccc(CCCC(=O)O)c1)Oc1cccc(OC(F)F)c1-2` (stereo not shown) [Example 121, 4-(3-{1-(difluoromethoxy)-8-[(methylsulfonyl)amino]-6H-benzo[c]chromen-6-yl}phenyl)butanoic acid] was tested. Which inhibition at 1.7 µM did it give?
The inhibition at 1.7 µM was 76.6%.

With `COc1cccc2c1-c1ccc(NS(C)(=O)=O)cc1C(/C=C/c1ccccc1)O2` (stereo not shown) [Example 89, N-{1-methoxy-6-[(E)-2-phenylethenyl]-6H-benzo[c]chromen-8-yl}methanesulfonamide] as the compound, how does the inhibition at 1.7 µM read?
Its inhibition at 1.7 µM is 86.1%.

For `COc1cccc2c1-c1ccc(CC(N)=O)cc1C(c1ccccc1)O2` (stereo not shown) [Example 12, (1-methoxy-6-phenyl-6H-dibenzo(b,d)pyran-8-yl)acetamide], which inhibition at 1.7 µM is on record?
The inhibition at 1.7 µM was 86.1%.

With `CCOC(=O)CCCc1cccc(C2Oc3cccc(OC)c3-c3ccc(NS(C)(=O)=O)cc32)c1` (stereo not shown) [Example 150, ethyl 4-(3-{1-methoxy-8-[(methylsulfonyl)amino]-6H-benzo[c]chromen-6-yl}phenyl)butanoate] as the compound, how does the inhibition at 1.7 µM read?
The inhibition at 1.7 µM was 90.8%.

How did the inhibition at 1.7 µM turn out when `COc1cccc2c1-c1ccc(NS(C)(=O)=O)cc1C(c1cccc(N(C)C(C)=O)c1)O2` (stereo not shown) [Example 110, N-(3-{1-methoxy-8-[(methylsulfonyl)amino]-6H-benzo[c]chromen-6-yl}phenyl)-N-methylacetamide] was run?
The inhibition at 1.7 µM was 74.8%.

For `COc1cccc2c1-c1ccc(NS(C)(=O)=O)cc1C(c1cccc(Oc3ccc(C(C)=O)cc3)c1)O2` (stereo not shown) [Example 140, N-{6-[3-(4-acetylphenoxy)phenyl]-1-methoxy-6H-benzo[c]chromen-8-yl}methanesulfonamide], which inhibition at 1.7 µM is on record?
The inhibition at 1.7 µM was 84.1%.

Which inhibition at 1.7 µM does the source give for `CCOC(=O)/C=C/COc1cccc(C2Oc3cccc(OC)c3-c3ccc(NS(C)(=O)=O)cc32)c1` (stereo not shown) [Example 94, ethyl (2E)-4-(3-{1-methoxy-8-[(methylsulfonyl)amino]-6H-benzo[c]chromen-6-yl}phenoxy)-2-butenoate] here?
Its inhibition at 1.7 µM is 79.6%.

`COc1cccc2c1-c1ccc(NS(C)(=O)=O)cc1C(c1ccc(/C=C/c3ccccc3)s1)O2` (stereo not shown) [Example 101, N-(1-methoxy-6-{5-[(E)-2-phenylethenyl]-2-thienyl}-6H-benzo[c]chromen-8-yl)methanesulfonamide] was tested. Which inhibition at 1.7 µM did it give?
The inhibition at 1.7 µM was 91.3%.

For `CS(=O)(=O)Nc1ccc2c(c1)C(c1ccccc1)Oc1cccc(-c3ccco3)c1-2` (racemic) [Example 40], which inhibition at 1.7 µM is on record?
Its inhibition at 1.7 µM is 69.3%.

Which inhibition at 1.7 µM does the source give for `COc1cccc2c1-c1ccc(NS(C)(=O)=O)cc1C(c1cccc(CCCCC#N)c1)O2` (stereo not shown) [Example 113, N-{6-[3-(4-cyanobutyl)phenyl]-1-methoxy-6H-benzo[c]chromen-8-yl}methanesulfonamide] here?
Its inhibition at 1.7 µM is 87.7%.
